Test results published in patent publication US12403137B2, “Compounds and methods of use” (Tango Therapeutics, Inc., priority 2019, dated 2025).
pIC50: −log10 of the molar value.

Key:
[1] = target: T1, PRMT5 (Homo sapiens, UniProt O14744); assay: PRMT5 inhibition assay with no cofactor; format: biochemical; settings: against PRMT5 with no cofactor; read-out: No Co-factor IC50
T1 construct: purchased Viva (custom protein)

[2] = tested on: HAP1 MTAP-intact cell line; assay: SDMA in-cell western assay, HAP1 MTAP-intact; format: cell-based; settings: Homo sapiens
Outline: (§1)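 IC50 values come from an SDMA in-cell western run in isogenic HAP1 cells, either MTAP-null or expressing endogenous MTAP. The intact-to-deleted IC50 ratio is used to score MTAP selectivity.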

[3] = target: T1, PRMT5; assay: PRMT5 inhibition assay with SAM as cofactor; format: biochemical; settings: against PRMT5 in the presence of SAM as cofactor
From the text: (§2) The Ki values can be calculated from the IC50 values as described in the Examples section. As detailed in the Examples section, for the assay performed in the presence of SAM, IC50=Ki×1.5 (Ki=IC50/1.5). For the assay performed in the presence of MTA, IC50=Ki×13.5 (Ki=IC50/13.5). Column 6 indicates the ratio between the Ki of compounds in the presence of SAM and the Ki of compounds in the presence of MTA

[4] = tested on: HAP1 MTAP-deleted cell line; assay: SDMA in-cell western assay, HAP1 MTAP-deleted; format: cell-based; settings: for pIC50: Homo sapiens, HAP1 MTAP-deleted (MTAP-null) cell line; for MTAP Intact/Deleted Ratio: IC50 ratio HAP1 MTAP-intact / HAP1 MTAP-deleted, >=3 fold considered MTAP-selective
Outline: as §1

[5] = target: T1, PRMT5; assay: PRMT5 inhibition assay with MTA as cofactor; format: biochemical; settings: for pIC50: against PRMT5 with MTA as cofactor; for SAM/MTA Ratio: ratio of Ki in the presence of SAM to Ki in the presence of MTA, Ki=IC50/1.5 (SAM), Ki=IC50/13.5 (MTA)
From the text: as §2

T1 sequence (O14744 whole entry): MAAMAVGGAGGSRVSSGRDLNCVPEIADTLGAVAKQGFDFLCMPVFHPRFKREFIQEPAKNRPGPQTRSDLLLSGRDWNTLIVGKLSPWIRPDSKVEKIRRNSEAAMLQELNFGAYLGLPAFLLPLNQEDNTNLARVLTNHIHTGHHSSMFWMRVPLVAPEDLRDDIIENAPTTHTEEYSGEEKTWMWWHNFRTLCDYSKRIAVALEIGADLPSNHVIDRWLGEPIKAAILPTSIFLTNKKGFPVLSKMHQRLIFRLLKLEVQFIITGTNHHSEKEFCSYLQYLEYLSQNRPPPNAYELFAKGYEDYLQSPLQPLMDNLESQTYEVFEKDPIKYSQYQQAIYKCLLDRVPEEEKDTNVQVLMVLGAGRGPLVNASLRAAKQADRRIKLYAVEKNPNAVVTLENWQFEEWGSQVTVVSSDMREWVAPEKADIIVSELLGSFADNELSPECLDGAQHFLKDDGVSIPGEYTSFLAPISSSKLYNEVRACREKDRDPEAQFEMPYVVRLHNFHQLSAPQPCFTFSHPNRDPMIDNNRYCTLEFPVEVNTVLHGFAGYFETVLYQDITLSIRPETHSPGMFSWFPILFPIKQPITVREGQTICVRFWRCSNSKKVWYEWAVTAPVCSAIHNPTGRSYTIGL
T1 sequence (Q9BQA1 whole entry partner): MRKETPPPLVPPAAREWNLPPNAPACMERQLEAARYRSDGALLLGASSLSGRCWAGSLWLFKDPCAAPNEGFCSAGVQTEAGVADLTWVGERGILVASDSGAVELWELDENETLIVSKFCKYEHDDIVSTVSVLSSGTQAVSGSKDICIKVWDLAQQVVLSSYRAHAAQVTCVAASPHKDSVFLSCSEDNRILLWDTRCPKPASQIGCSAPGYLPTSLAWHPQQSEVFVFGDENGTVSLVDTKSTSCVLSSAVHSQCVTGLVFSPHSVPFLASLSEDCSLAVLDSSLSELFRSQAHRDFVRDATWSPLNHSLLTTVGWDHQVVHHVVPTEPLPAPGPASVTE

pIC50 [1] | pIC50 [2] | pIC50 [3] | pIC50 [4] | pIC50 [5] | SMILES | MTAP Intact/Deleted Ratio [4] | SAM/MTA Ratio [5]
6.30 to 7.30 | ≤ 5.00 | 6.30 to 7.30 | 5.00 to 6.00 | > 7.30 | CC(=O)N1CCC(Nc2cc(C(=O)NC[C@@H](O)[C@@H]3Cc4ccc(OCc5ocnc5C)cc4CN3)cc(N3CCCCC3)c2)CC1 [Compound 60, 3-[(1-acetyl-4-piperidyl)amino]-N-[(2R)-2-hydroxy-2-[(3S)-7-[(4-methyloxazol-5-yl)methoxy]-1,2,3,4-tetrahydroisoquinolin-3-yl]ethyl]-5-(1-piperidyl)benzamide] | C* (an IC50 ratio of less than 3 fold between the IC50 in the HAP1 MTAP-intact cell line and the HAP1 MTAP-deleted cell line) | A (a Ki ratio greater than or equal to 10 fold between the Ki in the presence of SAM and the Ki in the presence of MTA)
6.30 to 7.30 | ≤ 5.00 | 6.30 to 7.30 | > 6.00 | > 7.30 | CC(=O)N1CC(Nc2cc(C(=O)NC[C@@H](O)[C@@H]3Cc4ccc(OCc5ocnc5C)cc4CN3)nc(N3CCCC3)n2)C1 [Compound 61, 6-[(1-acetylazetidin-3-yl)amino]-N-[(2R)-2-hydroxy-2-[(3S)-7-[(4-methyloxazol-5-yl)methoxy]-1,2,3,4-tetrahydroisoquinolin-3-yl]ethyl]-2-pyrrolidin-1-yl-pyrimidine-4-carboxamide] | A* (an IC50 ratio greater than or equal to 10 fold between the IC50 in the HAP1 MTAP-intact cell line and the HAP1 MTAP-deleted cell line) | A (a Ki ratio greater than or equal to 10 fold between the Ki in the presence of SAM and the Ki in the presence of MTA)
6.30 to 7.30 | > 6.00 | 6.30 to 7.30 | > 6.00 | > 7.30 | Cc1ncoc1COc1ccc2c(c1)CN[C@H]([C@H](O)CNC(=O)c1cc(NC3CCC3)nc(N3CCN(C(C)C)CC3)n1)C2 [Compound 63] | C* (an IC50 ratio of less than 3 fold between the IC50 in the HAP1 MTAP-intact cell line and the HAP1 MTAP-deleted cell line) | A (a Ki ratio greater than or equal to 10 fold between the Ki in the presence of SAM and the Ki in the presence of MTA)
